Experimental data reported in PMC5578999, “Novel quinolone chalcones targeting colchicine-binding pocket kill multidrug-resistant cancer cells by inhibiting tubulin activity and MRP1 function” (Scientific Reports, 2017).

Legend:
Assay in all cases: NCI-60 SRB screen
Assay type in all cases: cell-based
SR = system: SR
KM12 = system: KM12
SNB-19 = system: SNB-19
DU-145 = system: DU-145
NCI-H522 = system: NCI-H522
SK-MEL-28 = system: SK-MEL-28
SK-MEL-2 = system: SK-MEL-2
MDA-MB-468 = system: MDA-MB-468
SW-620 = system: SW-620
NCI-H23 = system: NCI-H23
HCT-15 = system: HCT-15
LOX IMVI = system: LOX IMVI
[1] = Homo sapiens, read-out: LC50 (the source's name)

For `COc1ccc2[nH]c(=O)c(/C=C/C(=O)c3ccccc3OC)cc2c1` [CTR-20, (E)-6-Methoxy-3-(3-(2-methoxyphenyl)-3-oxoprop-1-enyl) quinolin-2(1H)-one], the Log10GI50 (SR) was -7.18 Molar, the Log10LC50 (SR) was over -4.00 Molar and the Log10TGI (SR) was -4.99 Molar. For the same compound, the TGI (SR) was 1.03E-5 Molar, the “Growth Percent” value (SR; 1.00E-5 Molar) was 2.69% and the GI50 (SR; Homo sapiens) was 65.6 nM. For the same compound, the LC50 (50% lethal concentration) (SR; Homo sapiens) was over 100000 nM, the “Percent Growth” value (SR; Log10 Concentration -4.0) was -13% and the “Percent Growth” value (SR; Log10 Concentration -6.0) was 21%. The “Percent Growth” value (SR; Log10 Concentration -7.0) was 41%, the “Percent Growth” value (SR; Log10 Concentration -8.0) was 92% and the Log10GI50 (KM12) was -6.49 Molar. For the same compound, the Log10LC50 (KM12) was -5.23 Molar, the Log10TGI (KM12) was -5.80 Molar and the TGI (KM12) was 1.58E-6 Molar. The “Growth Percent” value (KM12; 1.00E-5 Molar) was 4.37%, the GI50 (KM12; Homo sapiens) was 321 nM and the CC50 (KM12; [1]) was 5890 nM. The “Percent Growth” value (KM12; Log10 Concentration -4.0) was -86%, the “Percent Growth” value (KM12; Log10 Concentration -5.0) was -70% and the “Percent Growth” value (KM12; Log10 Concentration -6.0) was 17%. The “Percent Growth” value (KM12; Log10 Concentration -7.0) was 84%, the “Percent Growth” value (KM12; Log10 Concentration -8.0) was 99% and the Log10GI50 (SNB-19) was -6.44 Molar. For the same compound, the Log10LC50 (SNB-19) was -5.05 Molar, the Log10TGI (SNB-19) was -5.75 Molar and the TGI (SNB-19) was 1.79E-6 Molar. The “Growth Percent” value (SNB-19; 1.00E-5 Molar) was 17.04%, the GI50 (SNB-19; Homo sapiens) was 362 nM and the CC50 (SNB-19; [1]) was 8880 nM. For the same compound, the “Percent Growth” value (SNB-19; Log10 Concentration -4.0) was -89%, the “Percent Growth” value (SNB-19; Log10 Concentration -5.0) was -54% and the “Percent Growth” value (SNB-19; Log10 Concentration -6.0) was 18%. For the same compound, the “Percent Growth” value (SNB-19; Log10 Concentration -7.0) was 90%, the “Percent Growth” value (SNB-19; Log10 Concentration -8.0) was 98% and the Log10GI50 (DU-145) was -6.28 Molar. The Log10LC50 (DU-145) was -5.26 Molar, the Log10TGI (DU-145) was -5.71 Molar and the TGI (DU-145) was 1.96E-6 Molar. For the same compound, the “Growth Percent” value (DU-145; 1.00E-5 Molar) was 10.76%, the GI50 (DU-145; Homo sapiens) was 529 nM and the CC50 (DU-145; [1]) was 5470 nM. For the same compound, the “Percent Growth” value (DU-145; Log10 Concentration -4.0) was -93%, the “Percent Growth” value (DU-145; Log10 Concentration -5.0) was -79% and the “Percent Growth” value (DU-145; Log10 Concentration -6.0) was 33%. The “Percent Growth” value (DU-145; Log10 Concentration -7.0) was 95%, the “Percent Growth” value (DU-145; Log10 Concentration -8.0) was 98% and the Log10GI50 (NCI-H522) was -6.45 Molar. The Log10LC50 (NCI-H522) was -4.89 Molar, the Log10TGI (NCI-H522) was -5.69 Molar and the TGI (NCI-H522) was 2.06E-6 Molar. For the same compound, the “Growth Percent” value (NCI-H522; 1.00E-5 Molar) was 3.93%, the GI50 (NCI-H522; Homo sapiens) was 352 nM and the LC50 (concentration causing 50% net cell kill) (NCI-H522; Homo sapiens) was 12900 nM. For the same compound, the “Percent Growth” value (NCI-H522; Log10 Concentration -4.0) was -88%, the “Percent Growth” value (NCI-H522; Log10 Concentration -5.0) was -45% and the “Percent Growth” value (NCI-H522; Log10 Concentration -6.0) was 21%. The “Percent Growth” value (NCI-H522; Log10 Concentration -7.0) was 85%, the “Percent Growth” value (NCI-H522; Log10 Concentration -8.0) was 87% and the Log10GI50 (SK-MEL-28) was -5.82 Molar. It also gave a Log10LC50 (SK-MEL-28) of -4.54 Molar, a Log10TGI (SK-MEL-28) of -5.14 Molar and a TGI (SK-MEL-28) of 7.32E-6 Molar. For the same compound, the “Growth Percent” value (SK-MEL-28; 1.00E-5 Molar) was 50.45%, the GI50 (SK-MEL-28; Homo sapiens) was 1520 nM and the CC50 (SK-MEL-28; [1]) was 28500 nM. The “Percent Growth” value (SK-MEL-28; Log10 Concentration -4.0) was -98%, the “Percent Growth” value (SK-MEL-28; Log10 Concentration -5.0) was -10% and the “Percent Growth” value (SK-MEL-28; Log10 Concentration -6.0) was 63%. The “Percent Growth” value (SK-MEL-28; Log10 Concentration -7.0) was 95%, the “Percent Growth” value (SK-MEL-28; Log10 Concentration -8.0) was 96% and the Log10GI50 (SK-MEL-2) was -6.16 Molar. For the same compound, the Log10LC50 (SK-MEL-2) was -4.54 Molar, the Log10TGI (SK-MEL-2) was -5.36 Molar and the TGI (SK-MEL-2) was 4.39E-6 Molar. For the same compound, the “Growth Percent” value (SK-MEL-2; 1.00E-5 Molar) was -2.52%, the GI50 (SK-MEL-2; Homo sapiens) was 694 nM and the CC50 (SK-MEL-2; [1]) was 29200 nM. For the same compound, the “Percent Growth” value (SK-MEL-2; Log10 Concentration -4.0) was -81%, the “Percent Growth” value (SK-MEL-2; Log10 Concentration -5.0) was -23% and the “Percent Growth” value (SK-MEL-2; Log10 Concentration -6.0) was 41%. The “Percent Growth” value (SK-MEL-2; Log10 Concentration -7.0) was 99%, the “Percent Growth” value (SK-MEL-2; Log10 Concentration -8.0) was 95% and the Log10GI50 (MDA-MB-468) was -6.47 Molar. For the same compound, the Log10LC50 (MDA-MB-468) was -4.40 Molar, the Log10TGI (MDA-MB-468) was -5.78 Molar and the TGI (MDA-MB-468) was 1.65E-6 Molar. For the same compound, the “Growth Percent” value (MDA-MB-468; 1.00E-5 Molar) was 16.65%, the GI50 (MDA-MB-468; Homo sapiens) was 336 nM and the CC50 (MDA-MB-468; [1]) was 40100 nM. The “Percent Growth” value (MDA-MB-468; Log10 Concentration -4.0) was -68%, the “Percent Growth” value (MDA-MB-468; Log10 Concentration -5.0) was -22% and the “Percent Growth” value (MDA-MB-468; Log10 Concentration -6.0) was 6%. The “Percent Growth” value (MDA-MB-468; Log10 Concentration -7.0) was 99%, the “Percent Growth” value (MDA-MB-468; Log10 Concentration -8.0) was 99% and the Log10GI50 (SW-620) was -6.47 Molar. For the same compound, the Log10LC50 (SW-620) was -4.31 Molar, the Log10TGI (SW-620) was -5.65 Molar and the TGI (SW-620) was 2.24E-6 Molar. The “Growth Percent” value (SW-620; 1.00E-5 Molar) was 8.40%, the GI50 (SW-620; Homo sapiens) was 335 nM and the LC50 (50% lethal concentration) (SW-620; Homo sapiens) was 49400 nM. For the same compound, the “Percent Growth” value (SW-620; Log10 Concentration -4.0) was -58%, the “Percent Growth” value (SW-620; Log10 Concentration -5.0) was -31% and the “Percent Growth” value (SW-620; Log10 Concentration -6.0) was 17%. The “Percent Growth” value (SW-620; Log10 Concentration -7.0) was 87%, the “Percent Growth” value (SW-620; Log10 Concentration -8.0) was 98% and the Log10GI50 (NCI-H23) was -5.88 Molar. For the same compound, the Log10LC50 (NCI-H23) was -4.66 Molar, the Log10TGI (NCI-H23) was -5.41 Molar and the TGI (NCI-H23) was 3.93E-6 Molar. For the same compound, the “Growth Percent” value (NCI-H23; 1.00E-5 Molar) was 21.29%, the GI50 (NCI-H23; Homo sapiens) was 1330 nM and the CC50 (NCI-H23; [1]) was 21600 nM. For the same compound, the “Percent Growth” value (NCI-H23; Log10 Concentration -4.0) was -64%, the “Percent Growth” value (NCI-H23; Log10 Concentration -5.0) was -43% and the “Percent Growth” value (NCI-H23; Log10 Concentration -6.0) was 63%. The “Percent Growth” value (NCI-H23; Log10 Concentration -7.0) was 87%, the “Percent Growth” value (NCI-H23; Log10 Concentration -8.0) was 88% and the Log10GI50 (HCT-15) was -6.40 Molar. For the same compound, the Log10LC50 (HCT-15) was -5.08 Molar, the Log10TGI (HCT-15) was -5.69 Molar and the TGI (HCT-15) was 2.05E-6 Molar. The “Growth Percent” value (HCT-15; 1.00E-5 Molar) was 11.32%, the GI50 (HCT-15; Homo sapiens) was 395 nM and the LC50 (HCT-15; Homo sapiens) was 8290 nM. The “Percent Growth” value (HCT-15; Log10 Concentration -4.0) was -85%, the “Percent Growth” value (HCT-15; Log10 Concentration -5.0) was -57% and the “Percent Growth” value (HCT-15; Log10 Concentration -6.0) was 26%. For the same compound, the “Percent Growth” value (HCT-15; Log10 Concentration -7.0) was 86%, the “Percent Growth” value (HCT-15; Log10 Concentration -8.0) was 95% and the Log10GI50 (LOX IMVI) was -6.42 Molar. For the same compound, the Log10LC50 (LOX IMVI) was -5.33 Molar, the Log10TGI (LOX IMVI) was -5.79 Molar and the TGI (LOX IMVI) was 1.61E-6 Molar. For the same compound, the “Growth Percent” value (LOX IMVI; 1.00E-5 Molar) was 10.23%, the GI50 (LOX IMVI; Homo sapiens) was 379 nM and the LC50 (LOX IMVI; Homo sapiens) was 4710 nM. The “Percent Growth” value (LOX IMVI; Log10 Concentration -4.0) was -95%, the “Percent Growth” value (LOX IMVI; Log10 Concentration -5.0) was -85% and the “Percent Growth” value (LOX IMVI; Log10 Concentration -6.0) was 22%. The “Percent Growth” value (LOX IMVI; Log10 Concentration -7.0) was 88% and the “Percent Growth” value (LOX IMVI; Log10 Concentration -8.0) was 96%.
